# Results reported in ChEMBL document CHEMBL5223120 (Bioorg Med Chem Lett, 2022).
# Tests used:
# Format in all cases: ADME, organism-based
# Settings in all cases: in vivo
# [1] = AUC in mouse at 10 mg/kg, po by WinNonlin non-compartmental analysis; set-up: dose 10 mg/kg, route po
# [2] = Cmax in mouse at 10 mg/kg, po by WinNonlin non-compartmental analysis; set-up: dose 10 mg/kg, route po
# [3] = Oral bioavailability in mouse at 10 mg/kg by WinNonlin non-compartmental analysis
SMILES,AUC ([1]; read-out: AUC) [µM·h],Cmax [2] [nM],bioavailability [3] [%],AUC [1] [µM·h],"F ([3]; po, 10 mg/kg) [%]"
CC(C)c1cnc(-c2cc(Cl)ccc2F)cc1Nc1ccncc1C(=O)N[C@@H](C)CO,,1570,,5.25,88
CC(C)c1cnc(-c2cc(Cl)ccc2F)cc1Nc1ccncc1C(=O)NC[C@H](C)O,2.54,1880,33,,
CC(C)c1cnc(-c2cc(Cl)ccc2F)cc1Nc1ccncc1C(=O)NC(CO)CO [PF-06952229],16.2,7070,87,,

# Next, values leading:
AUC ([1]; read-out: AUC) [µM·h],Cmax [2] [nM],bioavailability [3] [%],AUC [1] [µM·h],"F ([3]; po, 10 mg/kg) [%]",SMILES
0.93,200,16,,,CC(C)c1cnc(-c2cc(Cl)ccc2F)cc1Nc1ccncc1C(=O)NCCN
1.47,990,38,,,CC(C)c1cnc(-c2cc(Cl)ccc2F)cc1Nc1ccncc1C(=O)NCC(N)=O
